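Cultured in 96-well plates, cells were exposed to test compound for 48 hours across five concentrations. The concentration for full growth arrest is given as TGI.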
Tests used:
Assay in all cases: NCI-60 cell line screen, 48 h
SNB-19 CNS = tested on: SNB-19 CNS
PC-3 prostate = tested on: PC-3 prostate
MCF7 breast = tested on: MCF7 breast
HCT-15 colon = tested on: HCT-15 colon
RPMI-8226 leukemia = tested on: RPMI-8226 leukemia
BT-549 breast = tested on: BT-549 breast
UACC-62 melanoma = tested on: UACC-62 melanoma
U251 CNS = tested on: U251 CNS
LOX IMVI melanoma = tested on: LOX IMVI melanoma
CCRF-CEM leukemia = tested on: CCRF-CEM leukemia

Row | Structure (SMILES) | TGI (SNB-19 CNS) | TGI (PC-3 prostate) | TGI (MCF7 breast) | TGI (HCT-15 colon) | TGI (RPMI-8226 leukemia) | TGI (BT-549 breast) | TGI (UACC-62 melanoma) | TGI (U251 CNS) | TGI (LOX IMVI melanoma) | TGI (CCRF-CEM leukemia)
1 | O=C1/C(=C/Cc2ccco2)N=C(c2ccccc2)N1c1nc2c(Cl)cc(Cl)cc2s1 | > 100 µM | 74.8 µM | > 100 µM | > 100 µM | 35.4 µM | 83.5 µM | > 100 µM | 83.5 µM | > 100 µM | 39.8 µM
2 | NC(=O)c1nnc2c(F)cccc2c1N | > 100 µM | > 100 µM | > 100 µM | > 100 µM | > 100 µM | > 100 µM | > 100 µM | > 100 µM | > 100 µM | > 100 µM
3 | S=C1NNC(=S)NN1 | > 1 µM | > 1 µM | > 1 µM | > 1 µM | > 1 µM | > 1 µM | > 1 µM | > 1 µM | 0.328 µM | > 1 µM

Reference: PubChem BioAssay (NCI)
